“Also recorded” adds a separate entry of the source.
Test system: T. cruzi (Tulahuen strain) in L929
Experiment: Washout assay in T. cruzi-infected L929 cultures (Tulahuen strain)
Type: cell-based, Trypanosoma cruzi
Conditions: 10 μM for seven days, then seven days drug-free medium; light microscopy
Experimental: To explore in vitro parasitic exhaustion, T. cruzi-infected L929 cultures were incubated for seven days with the compounds at 10 μM. Then, fresh drug-free medium was added and replaced every 48 h. After seven days of incubation, the number of released parasites into the supernatant was quantified by light microscopy.
T. cruzi-infected L929 cultures (using the Tulahuen-β gal strain) were exposed or not to 10 µM of each nucleoside derivative, and the RPMI culture medium (containing the tested compounds) replaced every 48 h. After seven days of incubation, the cultures were rinsed with 0.1 M phosphate buffered saline (PBS), and drug-free culture medium was added for another seven days of incubation, replacing the drug-free medium every 48 h. Parasites released into the supernatant of the cell cultures were quantified using light microscopy, and the parasite burden into the infected cultures was analyzed by adding the substrate CPRG (chlorophenol red ß-D-galactopyranoside) followed by spectrophotometric measurements at 570 nm. The results were expressed as percentage of reduction in parasite growth compared to untreated cells, and EC50 values were calculated. Bz was used as a positive control. The data results from two independent experiments done in at least duplicate.

## Nc1ncnc2c1c(-c1ccc(Cl)c(F)c1)cn2[C@@H]1O[C@H](CO)[C@@H](O)[C@H]1O [FH10714, 7-(3-fluoro,4-chlorophenyl)tubercidin]
  parasites released into the supernatant after washout: sterilized the infected cultures; also recorded: cleared the parasitism; also recorded: eliminated the parasitism

Reference: PMC9695592, “Phenotypic Evaluation of Nucleoside Analogues against Trypanosoma cruzi Infection: In Vitro and In Vivo Approaches” (Molecules, 2022)
